≈ marks a conversion by molar mass, not a printed value.
Key:
[1] = test system: Enterococcus faecium (VanA VRE, ATCC BAA-2317); assay: In vitro antimicrobial assay (MIC), VanA E. faecium; type: cell-based; conditions: for antibiotic susceptibility profile of the strain: VanA E. faecium ATCC BAA-2317; for MIC: Enterococcus faecium, read-out: Antimicrobial Activity, MIC, VanA E. faecium
Description: (§1) One day before a study was run, fresh cultures of vancomycin-sensitive Staphylococcus aureus (VSSA strain ATCC 25923), methicillin and oxacillin-resistant Staphylococcus aureus subsp. aureus (MRSA strain ATCC 43300), vancomycin-resistant Enterococcus faecalis (VanA VRE, BM4166), Enterococcus faecium (VanA VRE, ATCC BAA-2317), vancomycin-resistant Enterococcus faecalis (VanB VRE, strain ATCC 51299), Escherichia coli (ATCC 25922), Acinetobacter baumannii (ATCC BAA-1710), Pseudomonas aeruginosa (ATCC 15442), Klebsiella pneumoniae (ATCC 700603) were inoculated and grown in an orbital shaker at 37° C. in 100% Mueller-Hinton broth (VSSA, MRSA and VanB VRE), 100% brain-heart infusion broth (VanA VRE, A. baumannii and K. pneumoniae) or 100% Luria broth (E. coli and P. aeruginosa). After 24 hours, the bacterial stock solutions were serially diluted with the culture medium (10% Mueller-Hinton broth for VSSA, MRSA and VanB VRE or 10% brain-heart infusion broth for VanA VRE A. baumannii and K. pneumoniae or 10% Luria Broth for E. coli and P. aeruginosa) to achieve a turbidity equivalent to a 1:100 dilution of a 0.5 M McFarland solution. This diluted bacterial stock solution was then inoculated in a 96-well V-shaped glass coated microtiter plate, supplemented with serial diluted aliquots of the antibiotic solution in DMSO (4 μL), to achieve a total assay volume of 0.1 mL. The plate was then incubated at 37° C. for 18 hours, after which minimal inhibitory concentrations (MICs) were determined by monitoring the cell growth (observed as a pellet) in the wells.
(§2) The lowest concentration of antibiotic (in μg/mL) capable of eliminating cell growth in the wells is the reported MIC value. The reported MIC values for the vancomycin analogues were determined against vancomycin as a standard in the first well.*
(§3) [*Clinical and Laboratory Standards Institute. Methods for Dilution Antimicrobial Susceptibility Tests for Bacteria That Grow Aerobically; Approved Standard, 7th ed.; CLSI document M07-A8; Clinical and Laboratory Standards Institute: Wayne, Pa., 2009.]

[2] = test system: vancomycin-resistant Enterococcus faecalis (VanA VRE, BM4166); assay: In vitro antimicrobial assay (MIC), VanA E. faecalis; type: cell-based; conditions: for MIC: Enterococcus faecalis, VRE, read-out: Antimicrobial Activity, MIC, VanA E. faecalis; for antibiotic susceptibility profile of the strain: VanA E. faecalis BM 4166
Description: as §1, §2, §3

[3] = test system: VanA VRE (E. faecalis BM 4166 and E. faecium ATCC BAA-2317); assay: Cell wall permeability assay (propidium iodide uptake); type: cell-based, Enterococcus faecalis; Enterococcus faecium
Description: The effect of the compounds on cell membrane permeability was examined by measuring cytoplasmic membrane uptake of the fluorescent probe propidium iodide in the same VanA vancomycin-resistant E. faecalis (BM 4166) and E. faecium (ATCC BAA-2317) strains. This fluorescent probe only enters cells with permeabilized cell membranes and is detected by the emission of fluorescence upon intracellular nucleic acid binding [Boulos et al., J Microbiol Methods 1999, 37(1):77-86].
Fresh, mid-log phase VanA VRE in pH 7.2 buffer at 25° C. were preincubated with propidium iodide (10 μM) for 5 minutes before the test compounds were added, monitoring the fluorescence emission at 617 nm (excitation at 535 nm) over time, both pre (5 minutes) and post (15 minutes) compound addition. Rapid and sustained increases in fluorescence intensity are observed immediately upon addition of test compounds that induce bacterial cell membrane permeability.
One day before a study was run, cultures of vancomycin-resistant Enterococcus faecalis (VanA VRE, BM4166) and Enterococcus faecium (VanA VRE, ATCC BAA-2317), were inoculated and grown in an orbital shaker at 37° C. in 100% brain-heart infusion broth for 12 hours. The above bacterial solution was subjected to a subculture to obtain fresh mid-log phase bacterial cells (total volume of bacterial suspension=7 mL, incubation time=6 hours, OD600=0.6). After the cultured bacteria were harvested (3000 rpm, 4° C., 20 minutes), the white bacterial precipitate was washed and resuspended in 5 mM glucose and 5 mM HEPES buffer (1:1, 500 μL, pH=7.2).
This bacterial suspension (130 μL) was charged into a 96-well black plate with a clear bottom (Corning 3650). The propidium iodide dye (10 μL, 150 μM DMSO solution) was added to the above suspension and the fluorescence was monitored at 25° C. for 5 minutes at 30 second intervals using a microplate reader (Molecular Devices®, Max Gemini EX) at an excitation wavelength of 535 nm and an emission wavelength of 617 nm. The test compound (150 μM, 10 μL) was added to the cell suspension and the fluorescence was monitored at 25° C. for an additional 15 minutes.

[4] = test system: vancomycin-resistant Enterococcus faecalis (VanA VRE, BM4166); conditions: BM 4166; previously reported data; cited from earlier work
[5] = test system: Enterococcus faecium (VanA VRE, ATCC BAA-2317); conditions: previously reported data; cited from earlier work

Row | Compound | antibiotic susceptibility profile of the strain [1] | MIC [2] [µg/mL] | MIC [1] [µg/mL] | other results
1 | CC1(C)S[C@@H]2[C@H](NC(=O)[C@H](N)c3ccccc3)C(=O)N2[C@H]1C(=O)O [ampicillin] | resistant |  |  | 
2 | CCCCCCCCCCCCCC[N+](C)(C)CCCNC(=O)[C@H]1NC(=O)[C@H]2NC(=O)[C@@H](NC(=O)[C@@H]3NC(=O)[C@H](CC(N)=O)NC(=O)[C@H](NC(=O)[C@@H](CC(C)C)NC)[C@H](O)c4ccc(c(Cl)c4)Oc4cc3cc(c4OC3OC(CO)C(O)[C@H](O)[C@@H]3O[C@H]3CC(C)(NCc4ccc(-c5ccc(Cl)cc5)cc4)[C@H](O)[C@H](C)O3)Oc3ccc(cc3Cl)[C@H]2O)c2ccc(O)c(c2)-c2c(O)cc(O)cc21 (stereo partly drawn) [Compound 17] |  | 2 | 2 | 
3 | teicoplanin | resistant |  |  | antibiotic susceptibility profile of the strain [2]: resistant
4 | CN[C@H](CC(C)C)C(=O)N[C@H]1C(=O)N[C@@H](CC(N)=O)C(=O)N[C@H]2C(=O)N[C@@H]3C(=O)N[C@H](C(=O)N[C@H](C(=O)NCCC[N+]4(C)CCCC4)c4cc(O)cc(O)c4-c4cc3ccc4O)[C@H](O)c3ccc(c(Cl)c3)Oc3cc2cc(c3OC2OC(CO)C(O)[C@H](O)[C@@H]2O[C@H]2CC(C)(N)[C@H](O)[C@H](C)O2)Oc2ccc(cc2Cl)[C@H]1O (stereo partly drawn) [Compound 11] |  | 4 | 2 | induced cell membrane permeability (propidium uptake) ([3]; 10 μM compound): produced pronounced, rapid cell membrane permeability
5 | CN[C@H](CC(C)C)C(=O)N[C@H]1C(=O)N[C@@H](CC(N)=O)C(=O)N[C@H]2C(=O)N[C@@H]3C(=O)N[C@H](C(=O)N[C@H](C(=O)NCCCN(C)C)c4cc(O)cc(O)c4-c4cc3ccc4O)[C@H](O)c3ccc(c(Cl)c3)Oc3cc2cc(c3OC2OC(CO)C(O)[C@H](O)[C@@H]2O[C@H]2CC(C)(NCc3ccc(-c4ccc(Cl)cc4)cc3)[C@H](O)[C@H](C)O2)Oc2ccc(cc2Cl)[C@H]1O (stereo partly drawn) [Compound 14] |  | 5 (≈ 2.88 µM) | 5 (≈ 2.88 µM) | 
6 | CC1(C)S[C@@H]2[C@H](NC(=O)Cc3ccccc3)C(=O)N2[C@H]1C(=O)O [benzylpenicillin] | resistant |  |  | 
7 | gentamicin |  |  |  | antibiotic susceptibility profile of the strain [2]: resistant
8 | CNC(CC(C)C)C(=O)NC1C(=O)NC(CC(N)=O)C(=O)NC2C(=N)NC3C(=O)NC(C(=O)NC(C(=O)O)c4cc(O)cc(O)c4-c4cc3ccc4O)C(O)c3ccc(c(Cl)c3)Oc3cc2cc(c3OC2OC(CO)C(O)C(O)C2OC2CC(C)(N)C(O)C(C)O2)Oc2ccc(cc2Cl)[C@@H]1O (stereo partly drawn) [Compound 3] |  |  |  | Antimicrobial Activity, MIC, VanA E. faecalis [4]: 0.5 µg/mL; Antimicrobial Activity, MIC, VanA E. faecium [5]: 0.5 µg/mL
9 | O=C(N[C@H](CO)[C@H](O)c1ccc([N+](=O)[O-])cc1)C(Cl)Cl [chloramphenicol] |  |  |  | antibiotic susceptibility profile of the strain [2]: resistant
10 | CN[C@H](CC(C)C)C(=O)N[C@H]1C(=O)N[C@@H](CC(N)=O)C(=O)N[C@H]2C(=O)N[C@@H]3C(=O)N[C@H](C(=O)N[C@H](C(=O)NCCC[N+]4(C)CCCC4)c4cc(O)cc(O)c4-c4cc3ccc4O)[C@H](O)c3ccc(c(Cl)c3)Oc3cc2cc(c3OC2OC(CO)C(O)[C@H](O)[C@@H]2O[C@H]2CC(C)(NCc3ccc(-c4ccc(Cl)cc4)cc3)[C@H](O)[C@H](C)O2)Oc2ccc(cc2Cl)[C@H]1O (stereo partly drawn) [Compound 16] |  | 2 | 2 | 
11 | CC[C@H]1OC(=O)[C@H](C)[C@@H](O[C@H]2C[C@@](C)(OC)[C@@H](O)[C@H](C)O2)[C@H](C)[C@@H](O[C@@H]2O[C@H](C)C[C@H](N(C)C)[C@H]2O)[C@](C)(O)C[C@@H](C)C(=O)[C@H](C)[C@@H](O)[C@]1(C)O [erythromycin] | resistant |  |  | antibiotic susceptibility profile of the strain [2]: resistant
12 | CN[C@H](CC(C)C)C(=O)N[C@H]1C(=O)N[C@@H](CC(N)=O)C(=O)N[C@H]2C(=O)N[C@@H]3C(=O)N[C@H](C(=O)N[C@H](C(=O)NCCC[N+](C)(C)C)c4cc(O)cc(O)c4-c4cc3ccc4O)[C@H](O)c3ccc(c(Cl)c3)Oc3cc2cc(c3OC2OC(CO)C(O)[C@H](O)[C@@H]2O[C@H]2CC(C)(N)[C@H](O)[C@H](C)O2)Oc2ccc(cc2Cl)[C@H]1O (stereo partly drawn) [Compound 10] |  | 63 | 126 | induced cell membrane permeability (propidium uptake) ([3]; 10 μM compound): did not do so; induced cell membrane permeability (propidium uptake) ([3]; 100 μM compound): exhibited this induced permeability
13 | CCN(CC)CCS(=O)(=O)[C@@H]1CCN2C(=O)c3coc(n3)CC(=O)C[C@H](O)/C=C(C)/C=C/CNC(=O)/C=C/[C@@H](C)[C@@H](C(C)C)OC(=O)[C@@H]12 [dalfopristine] | sensitive |  |  | 
14 | CN[C@H](CC(C)C)C(=O)N[C@H]1C(=O)N[C@@H](CC(N)=O)C(=O)N[C@H]2C(=O)N[C@@H]3C(=O)N[C@H](C(=O)N[C@H](C(=O)NCCCN(C)C)c4cc(O)cc(O)c4-c4cc3ccc4O)[C@H](O)c3ccc(c(Cl)c3)Oc3cc2cc(c3OC2OC(CO)C(O)[C@H](O)[C@@H]2O[C@H]2CC(C)(N)[C@H](O)[C@H](C)O2)Oc2ccc(cc2Cl)[C@H]1O (stereo partly drawn) [Compound 9] |  | 500 (≈ 326 µM) | 500 (≈ 326 µM) | induced cell membrane permeability (propidium uptake) ([3]; 10 μM compound): did not do so

— patent publication US10934326B2, “Peripheral modifications on pocket-redesigned vancomycin analogs synergistically improve antimicrobial potency and durability” (priority 2016, dated 2021)
